The structures appear in SMILES notation.

By IC50 is commonly meant the concentration that inhibits the measured activity by half. Low readings indicate greater potency in that assay, high ones weaker potency in that assay.

In experiment [1] the target is T1, Prostaglandin G/H synthase 2 (Ovis aries, UniProt P79208).
T1 sequence (P79208 whole entry): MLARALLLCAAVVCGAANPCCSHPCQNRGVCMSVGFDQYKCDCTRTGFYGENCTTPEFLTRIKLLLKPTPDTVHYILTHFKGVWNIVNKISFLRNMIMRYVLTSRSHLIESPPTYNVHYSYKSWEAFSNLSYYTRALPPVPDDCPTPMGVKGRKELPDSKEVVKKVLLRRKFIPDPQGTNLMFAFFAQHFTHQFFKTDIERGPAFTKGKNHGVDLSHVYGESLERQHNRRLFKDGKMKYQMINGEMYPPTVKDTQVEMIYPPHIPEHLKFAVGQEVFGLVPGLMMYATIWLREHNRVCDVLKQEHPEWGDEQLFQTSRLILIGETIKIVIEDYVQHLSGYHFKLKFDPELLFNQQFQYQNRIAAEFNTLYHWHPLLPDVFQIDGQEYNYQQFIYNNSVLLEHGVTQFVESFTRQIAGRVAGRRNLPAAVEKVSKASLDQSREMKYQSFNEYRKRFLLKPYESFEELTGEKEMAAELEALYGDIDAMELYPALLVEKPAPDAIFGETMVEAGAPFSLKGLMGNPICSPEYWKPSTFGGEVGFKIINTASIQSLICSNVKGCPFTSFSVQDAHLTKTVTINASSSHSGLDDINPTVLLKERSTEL
As to the kind of experiment: COX Inhibition Assay. Conditions: pH 8; 37 °C. On the procedure: (§1) Stock solutions of test compounds were dissolved in a minimum volume of dimethyl sulphoxide (DMSO) toobtain 0.001, 0.01, 0.1, 1, 10, 100, and 500 μM in a final volume of 1 mL. In brief, haematin reconstituted purified COX-1 and COX-2 enzymes in a reaction buffer containing Tris-hydrochloric acid (HCl) (0.1 M, pH 8.0), 5 mM ethylenediaminetetraacetic acid (EDTA), and 2 mM phenol were pre-incubated at room temperature for 1 h with test compounds followed by the addition of AA (100 μM)for 2 min at 37°C. Reactions were terminated by adding 50 μL of 1 M HCl followed by the addition of 100 μL of stannous chloride.

The target in experiment [2] is T2, Prostaglandin G/H synthase 1 (Ovis aries, UniProt P05979).
T2 sequence (P05979 whole entry): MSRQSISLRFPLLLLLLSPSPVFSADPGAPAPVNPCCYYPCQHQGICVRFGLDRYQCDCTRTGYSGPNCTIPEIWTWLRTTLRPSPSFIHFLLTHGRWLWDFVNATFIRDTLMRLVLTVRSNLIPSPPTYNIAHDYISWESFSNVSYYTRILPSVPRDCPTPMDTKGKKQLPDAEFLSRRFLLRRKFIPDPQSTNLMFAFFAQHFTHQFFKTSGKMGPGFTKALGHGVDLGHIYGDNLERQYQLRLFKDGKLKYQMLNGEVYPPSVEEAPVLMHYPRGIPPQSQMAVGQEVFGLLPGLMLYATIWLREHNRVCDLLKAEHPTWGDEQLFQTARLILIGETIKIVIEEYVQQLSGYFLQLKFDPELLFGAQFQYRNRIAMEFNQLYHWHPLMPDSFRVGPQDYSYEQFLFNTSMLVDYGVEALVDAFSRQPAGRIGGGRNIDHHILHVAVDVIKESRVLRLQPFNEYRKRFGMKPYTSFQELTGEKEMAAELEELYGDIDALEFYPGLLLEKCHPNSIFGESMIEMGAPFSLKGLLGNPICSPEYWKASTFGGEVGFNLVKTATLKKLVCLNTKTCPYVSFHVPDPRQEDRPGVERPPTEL
As to the kind of experiment: COX Inhibition Assay. To be noted: pH 8; 37 °C. The procedure:
as §1

For the compound `O=c1oc2ccccc2cc1-c1nnc(Nc2ccc(Cl)cc2)o1` [3-[5-(4-Chloro-phenylamino)-[1,3,4]oxadiazol-2-yl]-chromen-2-one (6b)], the IC50 in experiment [1] and in experiment [2] was more than 100 µM each time.

`O=C(Nc1nnc(-c2cc3ccccc3oc2=O)o1)c1ccc(Cl)cc1` [4-Chloro-N-[5-(2-oxo-2H-chromen-3-yl)-[1,3,4]oxadiazol-2-yl]-benzamide (8b)]: the IC50 in experiment [1] and in experiment [2] was more than 100 µM throughout.

On to `O=c1oc2ccccc2cc1-c1nnc(-c2ccccc2)o1` [3-(5-Phenyl-[1,3,4]oxadiazol-2-yl)-chromen-2-one (4a)], for which the values for the IC50 in experiment [1] and in experiment [2] were 8.7 µM and less than 100 µM, respectively.

As for `Cc1ccc(-c2nnc(-c3cc4ccccc4oc3=O)o2)cc1` [3-(5-p-Tolyl-[1,3,4]oxadiazol-2-yl)-chromen-2-one (4c)], the IC50 was 1.18 µM in experiment [1] and more than 100 µM in experiment [2].

Take `Cc1ccccc1Nc1nnc(-c2cc3ccccc3oc2=O)o1` [3-(5-o-Tolylamino-[1,3,4]oxadiazol-2-yl)-chromen-2-one (6e)]: the 50% inhibitory concentration (IC50) in experiment [1] is 36.6 µM; in experiment [2], more than 100 µM.

Turning to `O=c1oc2ccccc2cc1-c1nnc(-c2ccc(Cl)cc2Cl)o1` [3-[5-(2,4-Dichloro-phenyl)-[1,3,4]oxadiazol-2-yl]-chromen-2-one (4e)], the values for the IC50 in experiment [1] and in experiment [2] were 0.4 µM and 41.6 µM, respectively.

Consider `O=c1oc2ccccc2cc1-c1nnc(-c2ccc(Cl)cc2)o1` [3-[5-(4-Chloro-phenyl)-[1,3,4]oxadiazol-2-yl]-chromen-2-one (4b)], for which the IC50 is 1.2 µM in experiment [1] and 35 µM in experiment [2].

The values are drawn from BindingDB's records for doi:10.3109/14756366.2010.550890 (Jamia Hamdard University, 2011).
